Data as given in patent publication US20240336654A1, “ANTIMICROBIAL PEPTIDOMIMETICS” (SPEXIS AG, priority 2021, published 2024).
Where a SMILES comes first, the peptide text is derived from it. Bridges are numbered along the chain shown (N, C = ends). [ ]: non-standard residue; d: D form. The star is where a group is joined. Val(Nα-amidino) = CC(C)[C@H](NC(=N)N)C(=O)*; dDab(iPr) = CC(C)NCC[C@@H](N)C(=O)O; Dab(iPr) = CC(C)NCC[C@H](N)C(=O)O; Hyp = O=C(O)[C@@H]1C[C@@H](O)CN1; Cit = NC(=O)NCCC[C@H](N)C(=O)O; Pen = CC(C)(S)[C@H](N)C(=O)O; dDab = NCC[C@@H](N)C(=O)O; Dab = NCC[C@H](N)C(=O)O

How the values were obtained:
Format in all cases: cell-based
[1] = test system: Escherichia coli ATCC 25922; settings: ATCC 25922
How it was run: (§1)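 MICs were determined by CLSI broth microdilution in cation-adjusted Mueller-Hinton II broth with about 5×10^5 CFU/mL inoculum. Peptides were tested in two-fold serial dilutions with 0.002% polysorbate 80 final. MIC in μg/mL is the lowest concentration with no visible growth after 18-20 h at 35 °C.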

[2] = test system: Escherichia coli MCR-1 Af 45; settings: MCR-1 Af 45
How it was run: as §1

[3] = test system: Klebsiella pneumoniae SSI3010; settings: SSI3010
How it was run: as §1

[4] = test system: human red blood cells (hRBC); settings: red cells of human, 1 h, 200 μg/mL
How it was run: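 Percent hemolysis derived from OD540 of supernatants relative to full lysis by 2.5% Triton X-100 (PBS baseline). Washed fresh human erythrocytes (20% v/v) were exposed to 200 μg/mL peptide for 1 h at 37 °C with shaking.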

Compound	Escherichia coli ATCC 25922 MIC [1]	Escherichia coli MCR-1 Af45 MIC [2]	Klebsiella pneumoniae SSI3010 MIC [3]	Hemolysis at 0.2 g/L [4]
CC[C@H](C)[C@H](NC(=O)[C@@H]1C[C@@H](O)CN1C(=O)[C@@H](NC(=N)N)C(C)C)C(=O)N[C@@H]1C(=O)N[C@@H](Cc2ccc(O)cc2)C(=O)N[C@@H]([C@@H](C)O)C(=O)N[C@@H](CC(N)=O)C(=O)N[C@@H](CCCNC(=N)N)C(=O)N[C@@H](CCCNC(N)=O)C(=O)N[C@@H]([C@@H](C)O)C(=O)N[C@H](CCN)C(=O)N[C@@H](CCCCN)C(=O)N[C@@H](CCN)C(=O)N[C@@H](CCN)C(=O)N[C@H](C(=O)N[C@@H](Cc2ccc(O)cc2)C(=O)O)CSSC1(C)C [Example 91, Gua-Val-Hyp-Ile-Pen-Tyr-Thr-Asn-Arg-Cit-Thr-^DDab-Lys-Dab-Dab-Cys-Y] ({Val(Nα-amidino)}-[Hyp]I[Pen]YTNR[Cit]T[dDab]K[Dab][Dab]CY-OH; disulfide 3-14)	0.125 µg/mL	0.125 µg/mL	0.25 µg/mL	<1%
CC[C@H](C)[C@H](NC(=O)[C@@H]1C[C@@H](O)CN1C(=O)[C@@H](NC(=N)N)C(C)C)C(=O)N[C@@H]1C(=O)N[C@@H](Cc2ccc(O)cc2)C(=O)N[C@@H]([C@@H](C)O)C(=O)N[C@@H](CC(N)=O)C(=O)N[C@@H](CCCNC(=N)N)C(=O)N[C@@H](CCNC(C)C)C(=O)N[C@@H]([C@@H](C)O)C(=O)N[C@H](CCN)C(=O)N[C@@H](CCCCN)C(=O)N[C@@H](CCN)C(=O)N[C@@H](CCN)C(=O)N[C@H](C(=O)N[C@@H](Cc2ccc(O)cc2)C(=O)O)CSSC1(C)C [Example 92, Gua-Val-Hyp-Ile-Pen-Tyr-Thr-Asn-Arg-Dab(iPr)-Thr-^DDab-Lys-Dab-Dab-Cys-Tyr] ({Val(Nα-amidino)}-[Hyp]I[Pen]YTNR[Dab(iPr)]T[dDab]K[Dab][Dab]CY-OH; disulfide 3-14)	0.0625 µg/mL	0.0625 µg/mL	0.25 µg/mL	<1%
CC[C@H](C)[C@H](NC(=O)[C@@H]1C[C@@H](O)CN1C(=O)[C@@H](NC(=N)N)C(C)C)C(=O)N[C@@H]1C(=O)N[C@@H](Cc2ccc(O)cc2)C(=O)N[C@@H]([C@@H](C)O)C(=O)N[C@@H](CC(N)=O)C(=O)N[C@@H](CCCNC(=N)N)C(=O)N[C@@H](CCNC(C)C)C(=O)N[C@@H]([C@@H](C)O)C(=O)N[C@H](CCN)C(=O)N[C@@H](CO)C(=O)N[C@@H](CCN)C(=O)N[C@@H](CCN)C(=O)N[C@H](C(=O)N[C@@H](Cc2ccc(O)cc2)C(=O)O)CSSC1(C)C [Example 93, Gua-Val-Hyp-Ile-Pen-Tyr-Thr-Asn-Arg-Dab(iPr)-Thr-^DDab-Ser-Dab-Dab-Cys-Tyr] ({Val(Nα-amidino)}-[Hyp]I[Pen]YTNR[Dab(iPr)]T[dDab]S[Dab][Dab]CY-OH; disulfide 3-14)	0.25 µg/mL	0.25 µg/mL	0.5 µg/mL	<1%
CC[C@H](C)[C@H](NC(=O)[C@@H]1C[C@@H](O)CN1C(=O)[C@@H](NC(=N)N)C(C)C)C(=O)N[C@@H]1C(=O)N[C@@H](Cc2ccc(O)cc2)C(=O)N[C@@H](CO)C(=O)N[C@@H](CC(N)=O)C(=O)N[C@@H](CCCNC(=N)N)C(=O)N[C@@H](CCN)C(=O)N[C@@H](CC(N)=O)C(=O)N[C@H](CCN)C(=O)N[C@@H](CCCCN)C(=O)N[C@@H](CCN)C(=O)N[C@@H](CCN)C(=O)N[C@H](C(=O)N[C@@H](Cc2ccc(O)cc2)C(=O)O)CSSC1(C)C [Example 94, Gua-Val-Hyp-Ile-Pen-Tyr-Ser-Asn-Arg-Dab-Asn-^DDab-Lys-Dab-Dab-Cys-Tyr] ({Val(Nα-amidino)}-[Hyp]I[Pen]YSNR[Dab]N[dDab]K[Dab][Dab]CY-OH; disulfide 3-14)	0.25 µg/mL	0.125 µg/mL	0.25 µg/mL	<1%
CC[C@H](C)[C@H](NC(=O)[C@@H]1C[C@@H](O)CN1C(=O)[C@@H](NC(=N)N)C(C)C)C(=O)N[C@@H]1C(=O)N[C@@H](Cc2ccc(O)cc2)C(=O)N[C@@H]([C@@H](C)O)C(=O)N[C@@H](CC(N)=O)C(=O)N[C@@H](CCCNC(=N)N)C(=O)N[C@@H](CCN)C(=O)N[C@@H]([C@@H](C)O)C(=O)N[C@H](CCNC(C)C)C(=O)N[C@@H](CCCCN)C(=O)N[C@@H](CCN)C(=O)N[C@@H](CCN)C(=O)N[C@H](C(=O)N[C@@H](Cc2ccc(O)cc2)C(=O)O)CSSC1(C)C [Example 95, Gua-Val-Hyp-Ile-Pen-Tyr-Thr-Asn-Arg-Dab-Thr-^DDab(iPr)-Lys-Dab-Dab-Cys-Tyr] ({Val(Nα-amidino)}-[Hyp]I[Pen]YTNR[Dab]T[dDab(iPr)]K[Dab][Dab]CY-OH; disulfide 3-14)	0.125 µg/mL	0.125 µg/mL	0.25 µg/mL	<1%
CC[C@H](C)[C@H](NC(=O)[C@@H]1C[C@@H](O)CN1C(=O)[C@@H](NC(=N)N)C(C)C)C(=O)N[C@@H]1C(=O)N[C@@H](Cc2ccc(O)cc2)C(=O)N[C@@H]([C@@H](C)O)C(=O)N[C@@H](CC(N)=O)C(=O)N[C@@H](CCCNC(=N)N)C(=O)N[C@@H](CCN)C(=O)N[C@@H]([C@@H](C)O)C(=O)N[C@H](CCNC(C)C)C(=O)N[C@@H](CO)C(=O)N[C@@H](CCN)C(=O)N[C@@H](CCN)C(=O)N[C@H](C(=O)N[C@@H](Cc2ccc(O)cc2)C(=O)O)CSSC1(C)C [Example 96, Gua-Val-Hyp-Ile-Pen-Tyr-Thr-Asn-Arg-Dab-Thr-^DDab(iPr)-Ser-Dab-Dab-Cys-Tyr] ({Val(Nα-amidino)}-[Hyp]I[Pen]YTNR[Dab]T[dDab(iPr)]S[Dab][Dab]CY-OH; disulfide 3-14)	0.125 µg/mL	0.125 µg/mL	0.25 µg/mL	<1%
CC[C@H](C)[C@H](NC(=O)[C@@H]1C[C@@H](O)CN1C(=O)[C@@H](NC(=N)N)C(C)C)C(=O)N[C@@H]1C(=O)N[C@@H](Cc2ccc(O)cc2)C(=O)N[C@@H]([C@@H](C)O)C(=O)N[C@@H](CC(N)=O)C(=O)N[C@@H](CCCNC(=N)N)C(=O)N[C@@H](CCN)C(=O)N[C@@H]([C@@H](C)O)C(=O)N[C@H](CCN)C(=O)N[C@@H](CCCNC(N)=O)C(=O)N[C@@H](CCN)C(=O)N[C@@H](CCN)C(=O)N[C@H](C(=O)N[C@@H](Cc2ccc(O)cc2)C(=O)O)CSSC1(C)C [Example 97, Gua-Val-Hyp-Ile-Pen-Tyr-Thr-Asn-Arg-Dab-Thr-^DDab-Cit-Dab-Dab-Cys-Tyr] ({Val(Nα-amidino)}-[Hyp]I[Pen]YTNR[Dab]T[dDab][Cit][Dab][Dab]CY-OH; disulfide 3-14)	0.125 µg/mL	0.125 µg/mL	0.25 µg/mL	<1%
CC[C@H](C)[C@H](NC(=O)[C@@H]1C[C@@H](O)CN1C(=O)[C@@H](NC(=N)N)C(C)C)C(=O)N[C@@H]1C(=O)N[C@@H](Cc2ccc(O)cc2)C(=O)N[C@@H]([C@@H](C)O)C(=O)N[C@@H](CC(N)=O)C(=O)N[C@@H](CCCNC(=N)N)C(=O)N[C@@H](CCN)C(=O)N[C@@H]([C@@H](C)O)C(=O)N[C@H](CCN)C(=O)N[C@@H](CCCCN)C(=O)N[C@@H](CCN)C(=O)N[C@@H](CCCNC(N)=O)C(=O)N[C@H](C(=O)N[C@@H](Cc2ccc(O)cc2)C(=O)O)CSSC1(C)C [Example 98, Gua-Val-Hyp-Ile-Pen-Tyr-Thr-Asn-Arg-Dab-Thr-^DDab-Lys-Dab-Cit-Cys-Tyr] ({Val(Nα-amidino)}-[Hyp]I[Pen]YTNR[Dab]T[dDab]K[Dab][Cit]CY-OH; disulfide 3-14)	0.25 µg/mL	0.125 µg/mL	0.5 µg/mL	<1%
CC[C@H](C)[C@H](NC(=O)[C@@H]1C[C@@H](O)CN1C(=O)[C@@H](NC(=N)N)C(C)C)C(=O)N[C@@H]1C(=O)N[C@@H](Cc2ccc(O)cc2)C(=O)N[C@@H](CO)C(=O)N[C@@H](CC(N)=O)C(=O)N[C@@H](CCCNC(=N)N)C(=O)N[C@@H](CCN)C(=O)N[C@@H]([C@@H](C)O)C(=O)N[C@H](CCN)C(=O)N[C@@H](CO)C(=O)N[C@@H](CCN)C(=O)N[C@@H](CCN)C(=O)N[C@H](C(=O)N[C@@H](Cc2ccc(O)cc2)C(=O)O)CSSC1(C)C [Example 99, Gua-Val-Hyp-Ile-Pen-Tyr-Ser-Asn-Arg-Dab-Thr-^DDab-Ser-Dab-Dab-Cys-Tyr] ({Val(Nα-amidino)}-[Hyp]I[Pen]YSNR[Dab]T[dDab]S[Dab][Dab]CY-OH; disulfide 3-14)	0.25 µg/mL	0.125 µg/mL	0.25 µg/mL	<1%
